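Results reflect a 48-hour exposure of cells in 96-well plates to compound at five concentrations. Definition used: TGI = concentration required for complete inhibition of growth.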
How the values were obtained:
Assay in all cases: NCI tumour cell line growth inhibition, 48 h
U251 CNS = system: U251 CNS
SK-MEL-2 melanoma = system: SK-MEL-2 melanoma
A549 NSCLC = system: A549 NSCLC
SNB-75 CNS = system: SNB-75 CNS
SR leukemia = system: SR leukemia
SNB-19 CNS = system: SNB-19 CNS
CCRF-CEM leukemia = system: CCRF-CEM leukemia
OVCAR-3 ovarian = system: OVCAR-3 ovarian
786-0 renal = system: 786-0 renal
RXF 393 renal = system: RXF 393 renal

| Compound | TGI (U251 CNS) [µM] | TGI (SK-MEL-2 melanoma) [µM] | TGI (A549 NSCLC) [µM] | TGI (SNB-75 CNS) [µM] | TGI (SR leukemia) [µM] | TGI (SNB-19 CNS) [µM] | TGI (CCRF-CEM leukemia) [µM] | TGI (OVCAR-3 ovarian) [µM] | TGI (786-0 renal) [µM] | TGI (RXF 393 renal) [µM] |
| --- | --- | --- | --- | --- | --- | --- | --- | --- | --- | --- |
| COc1nc2ncc([C@@H](OC(C)=O)[C@@H](COC(C)=O)OC(C)=O)nc2c(=O)n1C | > 100 | > 100 | > 100 | > 100 | > 100 | > 100 | > 100 | > 100 | > 100 | > 100 |
| COC(=O)C1=C(C(=O)OC)C23CC4CCC2(C(=O)C1O3)C4(C)C (stereo not given) | > 100 | > 100 | > 100 | > 100 | > 100 | > 100 | 66.7 | > 100 | > 100 | > 100 |
| CCCCCCCCCCCCCOCCOCCOCCCCC(O)CCCCCCCCCC1=C[C@H](C)OC1=O (stereo not given in full) | 42.2 | 63 | 36.9 | > 100 | 34.2 | 43.7 | > 100 | 44.2 | 49.2 | 47.5 |

Reference: PubChem BioAssay (NCI)
